Measurements as given in patent US4548927A, “Method and agents for raising animal tolerance to oxidant stress-inducing antibiotics” (priority 1983, dated 1985).

What was measured:
[1] = system: antibiotic-induced free radical-mediated damage; settings: humans; cited from earlier work
[2] = system: antibiotic-induced damage; settings: tumor cells and normal host tissues; cited from earlier work
heart = experiment: Cardiac evaluation / heart damage score and autopsy, Study No. 1 (Example II); assay type: in vivo, Balb/c female mice
From the text: A pathologist examined the heart of each mouse without prior knowledge of whether the animal received doxorubicin or placebo and methylene blue ur placebo. Cages were inspected twice daily for dead animals and autopsies were done immediately. The animals' hearts were washed in normal saline, fixed in formalin and embedded in glycol methacrylate. One-micron sections were inspected by light microscopy. The condition of the hearts was scored as follows: normal-1; slightly damaged-2; moderately damaged-3; severely damaged-4. Five specific categories or criteria were utilized for this evaluation: vacuolization; myofibrillar and nuclear degeneration; necrosis; interstitial edema; and interstitial inflammation. The numerical scores were averaged for each heart to yield an overall tabulation of damage.
In the course of this study, the cages were inspected twice daily for dead animals, and within twelve hours of death an autopsy was performed upon each animal that died. The heart was excised, inspected, washed in normal saline and fixed in 10% formalin. Upon terminatiun of this study, animals which had received no doxorubicin were killed by cervical dislocation and their hearts were handled in accordance with the procedures outlined earlier above.
Nonetheless, this difference in mean value was not statistically significant at the 5% level (f=2.3, p<0.1 and>0.05).

doxorubicin lethality [3] = experiment: Effects of methylene blue on doxorubicin toxicity, survival, Study No. 2 (Example II)
Protocol: (§1) Mice were obtained from Laboratory Supply Company, Inc., Indianapolis, Indiana. […] The light was maintained between 6:00 in the morning and 6:00 at night, and food and water were freely available. The rooms the mice were maintained in were sound insulated and kept at a constant relative humidity with a temperature ranging between 23° and 25° C. All animals were kept undisturbed except for a weekly cage cleaning, for 21 to 28 days after receipt from the animal supplier and prior to the experimentation. Four mice of the same sex were kept in each cage because of the well-known effects of isolation upon various biologic parameters. […] (See, Levi, F., Halberg, F., Haus, E., Sanchez, S., Sothern, R. B., Halberg, E., Hrushesky, W., Brown, H., Scheving, L. E., and Kennedy, B. J., "Synethetic Adrenocorticotropin for Optimizing Murine Circadian Chronotolerance for Adriamycin", CHRONOBIOLOGIA. 7(#2):227-244 (1980)).
(§2) The anthracycline antibiotic doxorubicin (NDC 38242-874-10, obtained from Adria Laboratories, Inc., Columbus, Ohio) was prepared to a concentration of 2 mg/ml in saline immediately prior to administration to the mice. Administration was by injection either intravenously through a transilluminated tail vein or intraperitoneally. The doxorubicin was administered in an amount per body weight of mouse of 18 mg/kg.
T-tests were used when comparing variances between two groups. […]

doxorubicin lethality [4] = experiment: Effect of lesser doses of methylene blue on doxorubicin toxicity, survival (Example III)
Protocol: as §1, §2
T-tests were used when comparing variances between two groups. When the variance of means were compared among several groups, analysis of variance was used. Multivariate mean analysis was used when comparing groups of individuals sharing common characteristics which were anticipated might possibly affect the outcome of the statistical analysis. […] Chi-square analyses were used to compare survival percentages between and among various treatment groups at appropriate truncation points. Gehan-Wilcoxon Life Table Analyses were used to complement multivariate survival analyses in order to properly weight long-term survivors.

L1210 leukemia cells = experiment: Effect of methylene blue on anti-neoplastic activity of doxorubicin (Example IV); assay type: in vivo, CD2 F1 female mice
Protocol: A strain of leukemia identified as L1210 was obtained from Arthur Bogden of the E. G. Mason Research Institute Animal and Human Tumor Bank, Worcester, Massachusetts. The tumor was kept in passage in DBA female mice. The tumor used for the below described experiments was between its tenth and twentieth in vivo passage. […] The tumor grows in ascites, which is initially clear and proceeds, within the 24 to 36 hours prior to death, to become hemorrhagic.
Accordingly, it was determined to assess tne anti-tumor efficacy of doxorubicin administered with and without methylene blue. For these studies, 120, 12 to 14 week old female CD2 F1 mice were each given 70,000 live L1210 leukemia cells 4 hours after the lights were turned on in the cages. The mice were then randomly assigned to one of seven treatment groups.

[5] = Doxorubicin lethality, CD2 F1 mice; assay type: in vivo
[6] = Doxorubicin lethality, Balb/c mice; parameters: species or system Balb/c female mice; settings: mouse, in vivo
cellular proteins = experiment: Examination of tissues after doxorubicin administration; settings: tissues subsequent to doxorubicin administration
From the text: The present inventor has likewise reasoned that the reduction of the oxidant stress-inducing antibiotics may be promoted by interaction with either NADH or NADPH, or their reducing proteins. […] It is therefore possible that the oxidation of NADH or NADPH may occur indirectly by the interaction of the antibiotic with these reducing proteins acting as mediators, either in addition to or in place of a direct interaction between the antibiotic and NADH or NADPH alone.

[7] = cited from earlier work
microsomal systems = settings: from NADPH and NADH; cited from earlier work
[8] = system: hepatic microsomes and heart sarcosomes; settings: cited from earlier work
[9] = system: cardiac submitochondrial particles; settings: cited from earlier work
[10] = Effects of methylene blue on anthracycline toxicity, survival, Study No. 1 (Example II); settings: mouse, in vivo, 18 mg/kg
doxorubicin lethality [11] = experiment: as above
hepatic GSH = experiment: Effect of methylene blue on hepatic GSH levels (Example I); assay type: in vivo, CD2 F1 female mice; settings: 25 mg methylene blue iv; 4 h; 33 week old; n=9; saline 15.03±4.33; f=6.03, p<0.03
Protocol: Total glutathione, oxidized and reduced (GSSG and GSH respectively), was determined by a modification of the method of Tietze (Tietze, F., ANAL. BIOCHE., 27:502-522 (1969). GSH was determined by the method of Prins and Loos (Prins, H. K. and Loos, J. A., "In Biochemical Methods in Red Cell Genetics", J. Yunis, ed., Academic Press, New York, (1969)).
Because maintenance of GSH is an NADPH-dependent process, decrements in intracellular NADPH were postulated to lead to a decrease in GSH concentration. […] Hepatic GSH was similarly observed and noted to behave in corresponding fashion.

in vivo = settings: mouse, 550 mg/kg
[12] = previous studies in mice, dogs and humans; cited from earlier work

Structure (SMILES): Cc1c(C)c2c(c(C)c1O)CCC(C)(CCCC(C)CCCC(C)CCCC(C)C)O2 (stereo not drawn) [Vitamin E, α-tocopherol]
- effect on antibiotic-induced damage at tolerable doses [1]: failed to work at tolerable doses in humans

Structure (SMILES): CC(=O)N[C@@H](CS)C(=O)O [N-acetyl cysteine]
- protection from antibiotic-induced damage [2]: mixed results

Structure (SMILES): COc1cccc2c1C(=O)c1c(O)c3c(c(O)c1C2=O)C[C@@](O)(C(=O)CO)C[C@@H]3O[C@H]1C[C@H](N)[C@H](O)[C@H](C)O1 [doxorubicin, 14-hydroxydaunomycin]
- visual appearance of hearts (heart; animals receiving doxorubicin): often pale and had a patchy fibrotic appearance
- most prominent heart finding (heart; animals which did not receive methylene blue): degeneration of myocytes
- pleural fluid, pulmonary consolidation and ascites (heart; autopsy, animals which had received doxorubicin): often present
- heart damage score, without methylene blue (heart; doxorubicin 18 mg/kg, no methylene blue, normal score=1.0, f=2.3, p<0.1 and >0.05): 2.8±1.3
- mean survival time, without methylene blue (doxorubicin lethality [3]; doxorubicin 18 mg/kg iv plus placebo, truncated at 130 days, n=7): 85 ± 7 days
- average survival, doxorubicin intraperitoneally (doxorubicin lethality [4]; doxorubicin 18 mg/kg ip, f=27.4, p<0.001): 6.2 ± 0.8 days
- average survival, saline placebo (doxorubicin lethality [4]; doxorubicin 18 mg/kg iv or ip plus saline placebo, f=10.8, p<0.001): 7.2 ± 0.6 days
- mortality (doxorubicin lethality [4]; doxorubicin 18 mg/kg iv or ip, with methylene blue or saline): All of the mice succumbed to doxorubicin
- average survival, doxorubicin intravenously (doxorubicin lethality [4]; doxorubicin 18 mg/kg iv, f=27.4, p<0.001): 11.2 ± 0.6 days
- survival, doxorubicin and placebo (L1210 leukemia cells; 70,000 L1210 cells, doxorubicin and placebo): 14.4 ± 1.2 days
- increased life span (L1210 leukemia cells; single doxorubicin treatment 3 days after tumor implantation, F=124, p<0.001): 160%
- survival of CD2 F1 relative to Balb/c mice ([5]; 18 mg/kg iv, compared with Balb/c mice): more than 3 times longer
- mortality at 720 h ([5]; mouse, in vivo, 18 mg/kg ip, 30 days, CD2 F1, read-out: mortality within 30 days, intraperitoneal): > 80%
- mortality ([5]; mouse, in vivo, 18 mg/kg iv, CD2 F1): ~100%
- mortality at 720 h ([6]; 18 mg/kg ip, 30 days, Balb/c female, read-out: mortality within 30 days, intraperitoneal): 100%
- mortality ([6]; 18 mg/kg iv, Balb/c): ~100%
- complexation with cellular proteins (cellular proteins): some complexation
- solubility [7]: soluble in water, methanol and other aqueous alcohols but is practically insoluble in acetone, benzene, chloroform, ethyl ether and petroleum ether
- free radical production (microsomal systems): causes the production of free radicals
- oxygen consumption [8]: increases oxygen consumption
- superoxide formation [9]: stimulates superoxide formation
- mortality at 360 h [10]: > 50%
- effect of route of administration of doxorubicin (doxorubicin lethality [11]; doxorubicin 18 mg/kg iv vs ip, two-way analysis of variance): no significant effect of the particular route of administration

Structure (SMILES): CN(C)c1ccc2nc3ccc(=[N+](C)C)cc-3sc2c1 [methylene blue, methylthionine chloride]
- mean hepatic GSH levels (hepatic GSH): 9.30±5.50 μMol/g protein
- pleural fluid, pulmonary consolidation and ascites (heart; animals killed after saline and/or methylene blue only): never
- visual appearance of hearts (heart; animals not receiving doxorubicin (saline and/or methylene blue)): appeared visually normal
- heart damage score, with methylene blue (heart; doxorubicin 18 mg/kg plus methylene blue iv, normal score=1.0, f=2.3, p<0.1 and >0.05 (not significant)): 1.8±0.9
- average survival, with methylene blue (doxorubicin lethality [3]; doxorubicin 18 mg/kg iv plus methylene blue 4 x 25 mg/kg (iv, then ip 1, 3, 6 h), 130 days, n=8, t=4.0, p<0.001): 113 ± 0.5 days
- average survival, with methylene blue (doxorubicin lethality [4]; doxorubicin 18 mg/kg iv or ip plus methylene blue 25 mg/kg iv, f=10.8, p<0.001): 10.3 ± 1 days
- survival, doxorubicin followed by methylene blue (L1210 leukemia cells; 70,000 L1210 cells, doxorubicin followed by methylene blue 25 mg/kg iv 30 min after, then sc 1.5-48 h): 14.7 ± 0.5 days
- mortality (in vivo): 50%
- tolerability at 25 mg/kg [12]: well tolerated
- survival, methylene blue without doxorubicin (doxorubicin lethality [11]; saline and methylene blue iv, no doxorubicin, study follow-up period): lived throughout the study follow-up period
